According to ChEMBL document CHEMBL3112428, “Biological evaluation of diazene derivatives as anti-tubercular compounds” (Eur J Med Chem, 2014):
The source made the active and inactive calls. No cut-off for these calls is given here.

Assays:
Format in all cases: functional, organism-based
[1] = tested on: Mycobacterium tuberculosis; assay: Antituberculosis activity against multidrug-resistant Mycobacterium tuberculosis LAM1 assessed as growth inhibition at 1 to 5 ug/ml measured everyday by BACTEC assay
[2] = tested on: Mycobacterium tuberculosis; assay: Antituberculosis activity against multidrug-resistant Mycobacterium tuberculosis LAM1 assessed as growth inhibition at <= 10 ug/ml measured everyday by BACTEC assay
[3] = tested on: Mycobacterium tuberculosis; assay: Antituberculosis activity against multidrug-resistant Mycobacterium tuberculosis LAM1 assessed as growth inhibition at 0.1 ug/ml measured everyday by BACTEC assay

## O=C(/N=N/c1ccc(C(F)(F)F)cc1)Nc1ccccc1
[1]
  growth inhibition (GI): Active

## CCOC(=O)/N=N/C(=O)Nc1ccc(C)cc1
[2]
  growth inhibition (GI): inactive

## NNC(=O)c1ccncc1 [ISONIAZID]
[3]
  growth inhibition (GI): inactive
